Data from US10329289B2, “6,7-dihydro-5H-pyrrolo[3,4-B]pyridin-5-one allosteric modulators of the M4 muscarinic acetylcholine receptor” (Merck Sharp & Dohme Corp., priority 2015, dated 2019).

molecular target: T1, human M4 muscarinic acetylcholine receptor (Homo sapiens, UniProt P08173); experiment: human FLIPR-based M4 PAM assay (Ca2+ mobilization, CHO-K1 cells with human M4 receptor and Gαqi5); type: cell-based; settings: acetylcholine at 20% of maximum response, read-out: M4 PAM IP
T1 construct: expressed in transfected cells; host or cells: CHO-K1
T1 sequence (P08173 1-479): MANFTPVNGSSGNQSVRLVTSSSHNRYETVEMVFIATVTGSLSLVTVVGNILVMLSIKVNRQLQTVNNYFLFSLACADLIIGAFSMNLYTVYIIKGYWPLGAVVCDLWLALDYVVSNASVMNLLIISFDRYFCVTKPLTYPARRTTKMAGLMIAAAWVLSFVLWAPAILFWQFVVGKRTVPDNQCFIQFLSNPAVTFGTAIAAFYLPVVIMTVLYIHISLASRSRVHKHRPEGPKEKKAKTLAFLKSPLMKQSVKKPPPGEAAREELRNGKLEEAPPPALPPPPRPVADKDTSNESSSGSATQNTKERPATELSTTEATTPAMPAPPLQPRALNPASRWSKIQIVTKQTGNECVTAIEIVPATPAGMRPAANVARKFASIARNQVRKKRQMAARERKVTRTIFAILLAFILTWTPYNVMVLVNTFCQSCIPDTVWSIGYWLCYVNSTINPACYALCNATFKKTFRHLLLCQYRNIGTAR
How it was run: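 Calcium-mobilization (FLIPR) readout in dye-loaded CHO-K1 cells co-expressing human M4 receptor and Gαqi5. Potentiation measured against acetylcholine at a concentration giving 20% of maximal response, with an optional 70% addition; the reported value is the curve inflection point from a 4-parameter logistic fit.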

Row | Compound | EC50
1 | CCc1cc2c(nc1N1CC[C@@H](Oc3ccc4c(c3)COC4)[C@H](F)C1)CNC2=O [Example 217, 2-((3R,4R)-4-((1,3-dihydro-2-benzofuran-5-yl)oxy)-3-fluoropiperidin-1-yl)-3-ethyl-6,7-dihydro-5H-pyrrolo[3,4-b]pyridin-5-one] | 42 nM
2 | COc1ccc(OC2CCN(c3nc4c(c(C)c3C)C(=O)NC4)CC2)cn1 [Example 218, 2-(4-((6-Methoxypyridin-3-yl)oxy)piperidin-1-yl)-3,4-dimethyl-6,7-dihydro-5H-pyrrolo[3,4-b]pyridin-5-one] | 38 nM
3 | Cc1c(N2CC[C@H](OCC3(C)CC3)[C@@H](F)C2)nc2c(c1C)C(=O)NC2 [Example 219A, 2-((3S,4S)-3-fluoro-4-((1-methylcyclopropyl)methoxy)piperidin-1-yl)-3,4-dimethyl-6,7-dihydro-5H-pyrrolo[3,4-b]pyridin-5-one] | 46 nM
4 | Cc1cncc(OC2CCN(c3nc4c(c(C)c3C)C(=O)NC4)CC2)c1 [Example 220A, 3,4-dimethyl-2-(4-((5-methylpyridin-3-yl)oxy)piperidin-1-yl)-6,7-dihydro-5H-pyrrolo[3,4-b]pyridin-5-one] | 83 nM
5 | COc1ccc(OC2CCN(c3nc4c(cc3C#N)C(=O)NC4)CC2)cn1 [Example 223, 2-(4-((6-methoxypyridin-3-yl)oxy)piperidin-1-yl)-5-oxo-6,7-dihydro-5H-pyrrolo[3,4-b]pyridine-3-carbonitrile] | 344 nM
6 | Cc1cc(N2CCC(OCC3(C)CC3)CC2)nc2c1C(=O)NC2 [Example 224, 4-methyl-2-(4-((1-methylcyclopropyl)methoxy)piperidin-1-yl)-6,7-dihydro-5H-pyrrolo[3,4-b]pyridin-5-one] | 3520 nM
7 | Cc1c(N2CC[C@@H](Oc3ccc4c(c3)COC4)[C@@H](F)C2)nc2c(c1C)C(=O)NC2 [Example 225, 2-((3S,4R)-4-((1,3-dihydro-2-benzofuran-5-yl)oxy)-3-fluoropiperidin-1-yl)-3,4-dimethyl-6,7-dihydro-5H-pyrrolo[3,4-b]pyridin-5-one] | 19 nM
8 | O=C1NCc2nc(N3CCC(Oc4ccc5c(c4)COC5)CC3)c(Br)cc21 [Example 226, 3-bromo-2-(4-((1,3-dihydro-2-benzofuran-5-yl)oxy)piperidin-1-yl)-6,7-dihydro-5H-pyrrolo[3,4-b]pyridin-5-one] | 136 nM
9 | Cc1c(N2CCC(Oc3cnc4c(c3)COC4)CC2)nc2c(c1C)C(=O)NC2 [Example 227, 2-(4-((5,7-dihydrofuro[3,4-b]pyridin-3-yl)oxy)piperidin-1-yl)-3,4-dimethyl-6,7-dihydro-5H-pyrrolo[3,4-b]pyridin-5-one] | 435 nM
10 | CCc1cc2c(nc1N1CCC(OCC3(C)CC3)CC1)CNC2=O [Example 229, 3-ethyl-2-(4-((1-methylcyclopropyl)methoxy)piperidin-1-yl)-6,7-dihydro-5H-pyrrolo[3,4-b]pyridin-5-one] | 36 nM
11 | COc1ccc(OC2CCN(c3nc4c(cc3C(F)(F)F)C(=O)NC4)CC2)cn1 [Example 230, 2-(4-((6-Methoxypyridin-3-yl)oxy)piperidin-1-yl)-3-(trifluoromethyl)-6,7-dihydro-5H-pyrrolo[3,4-b]pyridin-5-one] | 2120 nM
12 | CCN1Cc2nc(N3CCC(Oc4ccc(OC)nc4)CC3)c(C)cc2C1=O [Example 232, 6-Ethyl-2-(4-((6-methoxypyridin-3-yl)oxy)piperidin-1-yl)-3-methyl-6,7-dihydro-5H-pyrrolo[3,4-b]pyridin-5-one] | 81 nM
13 | CCOc1ccc(OC2CCN(c3nc4c(cc3C)C(=O)N[C@H]4CCO)CC2)cn1 [Example 234A, (S)-2-(4-((6-Ethoxypyridin-3-yl)ox)piperidin-1-yl)-7-(2-hydroxyethyl)-3-methyl-6,7-dihydro-5H-pyrrolo[3,4-b]pyridin-5-one] | 382 nM
14 | COc1ccc(OC2CCN(c3nc4c(cc3C)C(=O)N(CCN(C)C)C4)CC2)cn1 [Example 235, 6-(2-(dimethylamino)ethyl)-2-(4-((6-methoxypyridin-3-yl)oxy)piperidin-1-yl)-3-methyl-6,7-dihydro-5H-pyrrolo[3,4-b]pyridin-5-one] | 324 nM
15 | Cc1cc2c(nc1N1CCC(Oc3cccc(C#N)c3)CC1)CN(CCN(C)C)C2=O [Example 236, 3-((1-(6-(2-(dimethylamino)ethyl)-3-methyl-5-oxo-6,7-dihydro-5H-pyrrolo[3,4-b]pyridin-2-yl)piperidin-4-yl)oxy)benzonitrile] | 317 nM

Continued by falling EC50, values first:

Row | EC50 | Compound
16 | 1080 nM | COc1ccc(OC2CCN(c3nc4c(cc3C3CC3)C(=O)NC4)CC2)cn1 [Example 221, 3-cyclopropyl-2-(4-((6-methoxypyridin-3-yl)oxy)piperidin-1-yl)-6,7-dihydro-5H-pyrrolo[3,4-b]pyridin-5-one]
17 | 600 nM | CCc1c(C)c(N2CCC(Oc3ccc(OC)nc3)CC2)nc2c1C(=O)NC2 [Example 229A, 4-ethyl-2-(4-((6-methoxypyridin-3-yl)oxy)piperidin-1-yl)-3-methyl-6,7-dihydro-5H-pyrrolo[3,4-b]pyridin-5-one]
18 | 394 nM | CCC1c2nc(N3CCC(Oc4ccc(OC)nc4)CC3)c(C)cc2C(=O)N1CC (stereo not shown) [Example 233, 6,7-Diethyl-2-(4-((6-methoxypyridin-3-yl)oxy)piperidin-1-yl)-3-methyl-6,7-dihydro-5H-pyrrolo[3,4-b]pyridin-5-one]
19 | 288 nM | Cc1cc2c(nc1N1CCC(Oc3cnc4c(c3)OCC4)CC1)CNC2=O [Example 216A, 2-(4-((2,3-dihydrofuro[3,2-b]pyridin-6-yl)oxy)piperidin-1-yl)-3-methyl-6,7-dihydro-5H-pyrrolo[3,4-b]pyridin-5-one]
20 | 146 nM | Cc1cc2c(nc1N1CCC(Oc3cnc4c(c3)COC4)CC1)CN(CCO)C2=O [Example 236A, 2-(4-((5,7-dihydrofuro[3,4-b]pyridin-3-yl)oxy)piperidin-1-yl)-6-(2-hydroxyethyl)-3-methyl-6,7-dihydro-5H-pyrrolo[3,4-b]pyridin-5-one]
21 | 109 nM | COCCOc1ccc(OC2CCN(c3nc4c(c(C)c3C)C(=O)NC4)CC2)cn1 [Example 220, 2-(4-((6-(2-methoxyethoxy)pyridin-3-yl)oxy)piperidin-1-yl)-3,4-dimethyl-6,7-dihydro-5H-pyrrolo[3,4-b]pyridin-5-one]
22 | 86 nM | CCc1cc2c(nc1N1CCC(Oc3ccc(OC)nc3)CC1)CNC2=O [Example 228, 3-Ethyl-2-(4-((6-methoxypyridin-3-yl)oxy)piperidin-1-yl)-6,7-dihydro-5H-pyrrolo[3,4-b]pyridin-5-one]
23 | 51 nM | Cc1cc2c(nc1N1CCC(Oc3ccccc3)CC1)CN(CCO)C2=O [Example 231, 6-(2-Hydroxyethyl)-3-methyl-2-(4-phenoxypiperidin-1-yl)-6,7-dihydro-5H-pyrrolo[3,4-b]pyridin-5-one]
24 | 50 nM | C=Cc1cc2c(nc1N1CCC(Oc3ccc(OC)nc3)CC1)CNC2=O [Example 222, 2-(4-((6-methoxypyridin-3-yl)oxy)piperidin-1-yl)-3-vinyl-6,7-dihydro-5H-pyrrolo[3,4-b]pyridin-5-one]
25 | 25 nM | Cc1c(N2CCC(OCC3(C)CC3)CC2)nc2c(c1C)C(=O)NC2 [Example 219, 3,4-dimethyl-2-(4-((1-methylcyclopropyl)methoxy)piperidin-1-yl)-6,7-dihydro-5H-pyrrolo[3,4-b]pyridin-5-one]
